Measurements as given in ChEMBL document CHEMBL5154826, “Discovery of the Clinical Candidate MAK683: An EED-Directed, Allosteric, and Selective PRC2 Inhibitor for the Treatment of Advanced Malignancies” (J Med Chem, 2022).
Converted amounts (≈) assume the structure as drawn.

Assays:
[1] = In vivo inhibition of PRC2 in PBMC collected from human Karpas-422 cells xenografted Athymic NTac:NIH-Whn nude rat assessed as reduction in H3K27me3 level at 3 mg/kg, po, qd for 57 days measured after 4 hrs of last dose by FACS method; format: functional; set-up: scale not given: the % may be the effect or the level left; settings: time 57 day
Cytochrome P450 2D6 [2] = target: T1, Cytochrome P450 2D6 (Homo sapiens, UniProt P10635); experiment: Inhibition of CYP2D6 in human liver microsomes using bufuralol as substrate incubated for 10 mins in presence of NADPH by LC-MS/MS analysis; format: ADME, Microsome
[3] = Plasma protein binding in rat at 1 uM measured after 6 hrs LC-MS/MS analysis; format: ADME, cell-free; settings: read-out: PPB (converted)
[4] = Inhibition of PRC2 (unknown origin) assessed as reduction in H3K27 trimethylation using H3K27Me0 peptide (21 to 44 residues) as substrate by measuring SAH formation by LC-MS analysis; set-up: species or system Homo sapiens
[5] = Mutagenecity in Salmonella typhimurium TA98 by Ames test; format: toxicity; settings: salmonella enterica subsp. enterica serovar typhimurium
[6] = Antitumor activity against human Karpas-422 cells xenografted Athymic BALB/c nude mouse assessed as inhibition of tumor growth at 300 mg/kg, po for 23 days; format: functional; set-up: scale not given: the % may be the effect or the level left; settings: time 23 day
[7] = In vivo inhibition of PRC2 in PBMC collected from human Karpas-422 cells xenografted Athymic NTac:NIH-Whn nude rat assessed as reduction in H3K27me3 level at 10 mg/kg, po, qd for 42 days measured after 4 hrs of last dose by FACS method; format: functional; set-up: scale not given: the % may be the effect or the level left; settings: time 42 day
Cytochrome P450 3A4 = Cytochrome P450 3A4 (Homo sapiens, UniProt P08684); experiment: Inhibition of CYP3A4 in human liver microsomes using midazolam as substrate incubated for 10 mins by LC-MS/MS analysis; format: ADME, Microsome
[8] = Drug metabolism in bile duct cannulated Wistar Han rat assessed as parent compound recovery in bile at 3 mg/kg, iv after 8 hrs by LC-MS/MS analysis; format: ADME, organism-based; settings: read-out: Drug metabolism
[9] = Ratio of drug level in mouse blood to plasma; format: ADME, cell-free
[10] = High throughput solubility of the compound at pH 1 after 16 to 24 hrs by MS/MS analysis; format: physicochemical; settings: buffer, time 16-24 hrs
[11] = High throughput solubility of the compound in FeSSIF after 16 to 24 hrs by MS/MS analysis; format: physicochemical; settings: time 16-24 hrs
[12] = Plasma clearance in human assessed as hepatic extraction; format: ADME, cell-free
NIH3T3 = experiment: Phototoxicity in mouse 3T3 cells by neutral red uptake assay; format: toxicity, cell-based
[13] = Plasma clearance in rat; format: ADME, cell-free
[14] = target: Voltage-gated inwardly rectifying potassium channel KCNH2 (Homo sapiens, UniProt Q12809); experiment: Inhibition of hERG potassium channel in HEK293 cells by Q-patch clamp assay; format: toxicity, cell-based
[15] = Drugmetabolism in human hepatocytes assessed as metabolite formation; format: ADME, cell-based, Hepatocyte
[16] = Unbound plasma concentration in Athymic BALB/c nude mouse xenografted with human Karpas-422 cells at 10 to 300 mg/kg, po after 12 hrs by HPLC-MS/MS analysis; format: ADME, organism-based; settings: in vivo, dose 10-300 mg/kg
[17] = Antitumor activity against human Karpas-422 cells xenografted Athymic BALB/c nude mouse assessed as minimum effective dose administered twice a day for 30 days; format: functional; settings: KARPAS-422, 720 h, time 30 day, read-out: MED
[18] = Dose normalized Cmax in ICR (CD-1) mouse at 2 mg/kg, po or 1 mg/kg, iv after 1 week by LC-MS/MS analysis; format: ADME, organism-based; settings: in vivo, 168 h, time 1 weeks
[19] = High throughput solubility of the compound in FaSSIF after 16 to 24 hrs by MS/MS analysis; format: physicochemical; settings: time 16-24 hrs
Cytochrome P450 2D6 [20] = target: T1, Cytochrome P450 2D6; experiment: Inhibition of CYP2D6 human liver microsomes using bufuralol as substrate incubated for 15 mins by LC-MS/MS analysis; format: ADME, Microsome
[21] = Volume of distribution at steady state ICR (CD-1) mouse at 2 mg/kg, po or 1 mg/kg, iv after 1 week by LC-MS/MS analysis; format: ADME, organism-based; settings: in vivo, 168 h, time 1 weeks
[22] = Ratio of drug level in human blood to plasma; format: ADME, cell-free; settings: whole blood
[23] = Toxicity in Athymic BALB/c nude mouse xenografted with human Karpas-422 cells assessed as tolerability by measuring body weight at 10 to 300 mg/kg, po twice a day for 30 days; format: organism-based; settings: in vivo, 720 h, dose 10-300 mg/kg, time 30 day
[24] = Dose normalized Cmax in Sprague-Dawley rat at 2 mg/kg, po or 1 mg/kg, iv after 1 week by LC-MS/MS analysis; format: ADME, organism-based; settings: in vivo, 168 h, time 1 weeks
KARPAS-422 = experiment: Antiproliferative activity against human KARPAS-422 cells expressing EZH2 mutant assessed as inhibition of cell growth after 14 days by beckman coulter counting method; format: functional; settings: time 14 day
[25] = target: T2, Alpha-2A adrenergic receptor (Homo sapiens, UniProt P08913); experiment: Agonist activity at adrenergic receptor alpha2a (unknown origin); format: functional
T2 sequence (P08913 whole entry): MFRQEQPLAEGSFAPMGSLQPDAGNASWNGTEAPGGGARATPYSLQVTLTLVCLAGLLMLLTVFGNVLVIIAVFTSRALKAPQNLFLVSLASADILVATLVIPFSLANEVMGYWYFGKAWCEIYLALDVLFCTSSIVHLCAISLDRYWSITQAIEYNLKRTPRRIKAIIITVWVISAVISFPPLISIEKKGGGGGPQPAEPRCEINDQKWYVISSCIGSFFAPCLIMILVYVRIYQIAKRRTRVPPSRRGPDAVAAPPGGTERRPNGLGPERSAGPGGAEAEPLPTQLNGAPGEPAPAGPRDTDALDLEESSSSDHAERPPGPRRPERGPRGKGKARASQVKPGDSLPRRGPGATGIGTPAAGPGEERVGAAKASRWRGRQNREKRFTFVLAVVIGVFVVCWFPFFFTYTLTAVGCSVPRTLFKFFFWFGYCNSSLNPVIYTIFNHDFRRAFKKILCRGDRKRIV

[26] = In vivo inhibition of PRC2 in PBMC collected from human Karpas-422 cells xenografted Athymic NTac:NIH-Whn nude rat assessed as reduction in H3K27me3 level at 0.3 mg/kg, po, qd for 52 days measured after 4 hrs of last dose by FACS method; format: functional; set-up: scale not given: the % may be the effect or the level left; settings: time 52 day
[27] = Lipophilicity, logD of the compound at pH 7.4 by LC with tandem MS analysis; format: physicochemical; settings: buffer
[28] = Dose normalized AUC in Sprague-Dawley rat at 2 mg/kg, po or 1 mg/kg, iv after 1 week by LC-MS/MS analysis; format: ADME, organism-based; settings: in vivo, 168 h, time 1 weeks
[29] = Dissociation constant, pKa of compound; format: physicochemical
[30] = Genotoxicity in Salmonella typhimurium TA98 in presence of S9 fraction by Ames test; format: toxicity, subcellular; settings: salmonella enterica subsp. enterica serovar typhimurium
[31] = Volume of distribution at steady state in Sprague-Dawley rat at 2 mg/kg, po or 1 mg/kg, iv after 1 week by LC-MS/MS analysis; format: ADME, organism-based; settings: in vivo, 168 h, time 1 weeks
[32] = Dose normalized Cmax in wild type Beagle dog at 2 mg/kg, po or 1 mg/kg, iv after 1 week by LC-MS/MS analysis; format: ADME, organism-based, Canis lupus familiaris; settings: in vivo, 168 h, time 1 weeks

T1 sequence (P10635 whole entry): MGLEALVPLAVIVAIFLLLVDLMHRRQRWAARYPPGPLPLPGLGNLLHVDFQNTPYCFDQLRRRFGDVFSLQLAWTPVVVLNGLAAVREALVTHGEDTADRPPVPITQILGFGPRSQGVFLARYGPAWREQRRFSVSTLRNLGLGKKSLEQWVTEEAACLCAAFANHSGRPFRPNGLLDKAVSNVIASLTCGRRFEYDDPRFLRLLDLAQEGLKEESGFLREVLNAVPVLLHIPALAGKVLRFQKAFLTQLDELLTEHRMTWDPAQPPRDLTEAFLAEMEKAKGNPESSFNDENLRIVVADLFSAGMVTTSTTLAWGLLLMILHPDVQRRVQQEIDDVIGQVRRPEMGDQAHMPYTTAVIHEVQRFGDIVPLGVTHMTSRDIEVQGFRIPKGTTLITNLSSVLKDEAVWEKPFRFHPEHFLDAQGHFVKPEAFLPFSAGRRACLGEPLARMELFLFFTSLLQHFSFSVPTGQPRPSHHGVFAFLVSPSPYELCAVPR
Sequence of Voltage-gated inwardly rectifying potassium channel KCNH2 (Q12809 whole entry): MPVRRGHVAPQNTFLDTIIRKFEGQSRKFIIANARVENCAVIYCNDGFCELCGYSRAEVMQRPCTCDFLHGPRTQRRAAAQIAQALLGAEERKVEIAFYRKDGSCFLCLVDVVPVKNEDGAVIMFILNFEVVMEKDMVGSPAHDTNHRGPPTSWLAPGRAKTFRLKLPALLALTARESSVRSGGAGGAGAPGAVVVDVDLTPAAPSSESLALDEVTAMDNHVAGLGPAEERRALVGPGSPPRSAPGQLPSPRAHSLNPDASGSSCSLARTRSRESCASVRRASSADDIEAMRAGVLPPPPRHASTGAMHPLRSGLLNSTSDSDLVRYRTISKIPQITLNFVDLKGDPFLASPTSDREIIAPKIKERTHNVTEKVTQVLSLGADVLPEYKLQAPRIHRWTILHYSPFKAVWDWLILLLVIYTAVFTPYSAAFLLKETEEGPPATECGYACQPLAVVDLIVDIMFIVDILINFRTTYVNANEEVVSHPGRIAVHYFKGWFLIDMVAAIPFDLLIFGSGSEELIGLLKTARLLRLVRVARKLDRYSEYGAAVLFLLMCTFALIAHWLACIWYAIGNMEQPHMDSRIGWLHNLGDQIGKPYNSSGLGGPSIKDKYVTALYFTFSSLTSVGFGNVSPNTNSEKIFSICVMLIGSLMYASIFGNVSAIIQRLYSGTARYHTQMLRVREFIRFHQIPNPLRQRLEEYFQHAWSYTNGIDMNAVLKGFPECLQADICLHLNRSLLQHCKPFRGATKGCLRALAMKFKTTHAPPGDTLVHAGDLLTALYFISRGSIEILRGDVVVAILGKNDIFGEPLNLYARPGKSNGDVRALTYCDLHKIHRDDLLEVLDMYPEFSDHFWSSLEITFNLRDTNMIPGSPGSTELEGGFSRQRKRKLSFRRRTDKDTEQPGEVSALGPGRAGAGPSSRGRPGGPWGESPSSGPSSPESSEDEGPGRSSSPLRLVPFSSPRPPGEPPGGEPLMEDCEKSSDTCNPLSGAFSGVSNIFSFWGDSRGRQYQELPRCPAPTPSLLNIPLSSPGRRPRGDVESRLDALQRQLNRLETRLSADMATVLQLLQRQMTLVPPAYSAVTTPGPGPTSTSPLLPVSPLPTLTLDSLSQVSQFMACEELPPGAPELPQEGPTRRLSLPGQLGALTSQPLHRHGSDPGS
Sequence of Cytochrome P450 3A4 (P08684 whole entry): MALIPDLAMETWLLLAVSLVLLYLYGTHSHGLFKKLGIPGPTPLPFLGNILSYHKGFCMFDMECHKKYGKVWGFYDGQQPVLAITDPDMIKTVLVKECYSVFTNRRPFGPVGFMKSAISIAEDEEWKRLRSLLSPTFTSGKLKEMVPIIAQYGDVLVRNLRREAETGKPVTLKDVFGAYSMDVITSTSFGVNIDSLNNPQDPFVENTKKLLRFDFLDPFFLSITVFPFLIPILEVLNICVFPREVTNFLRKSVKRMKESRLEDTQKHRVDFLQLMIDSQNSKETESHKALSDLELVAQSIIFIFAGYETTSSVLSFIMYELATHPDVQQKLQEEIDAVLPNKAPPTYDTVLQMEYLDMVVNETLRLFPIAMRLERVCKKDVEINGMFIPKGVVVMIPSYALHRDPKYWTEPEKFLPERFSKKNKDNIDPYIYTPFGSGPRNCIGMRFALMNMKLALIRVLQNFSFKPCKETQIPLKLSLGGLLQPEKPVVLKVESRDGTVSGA

`Cc1ncccc1-c1cnc(NCc2c(F)ccc3c2CCO3)n2cnnc12` showed an Activity [1] of 80%, an IC50 (Cytochrome P450 2D6 [2]) greater than 20 µM and a fraction unbound at 6 h, 1 µM [3] of 0.13. For the same compound, the IC50 [4] was 9 µM, the Activity [5] was “Non-Toxic” and the Activity [6] was 100%. The Activity [7] was 97%, the IC50 (Cytochrome P450 3A4) was greater than 18 µM and the dose excreted at 8 h [8] was 0.3%. The blood plasma ratio [9] was 1.03, the solubility [10] was greater than 13000 µM and the solubility [11] was 57 µM (≈ 21.5 µg/mL). For the same compound, the CLH [12] was 1.6 mL/min/kg, the Activity (NIH3T3) was “Non-Toxic” and the clearance [13] was 10 mL/min/kg. For the same compound, the IC50 [14] was greater than 30 µM, the Drug metabolism [15] was “Metabolite_Notdetected” and the “Cp(f)” value [16] was 8 nM. The minimal effective dose [17] was 3 mg/kg, the Cmax/dose [18] was 356 nM and the solubility [19] was 25 µM (≈ 9.41 µg/mL). For the same compound, the IC50 (Cytochrome P450 2D6 [20]) was greater than 18 µM, the Vdss [21] was 3.5 L/kg and the blood plasma ratio [22] was 0.78. For the same compound, the Activity [23] was “Non-Toxic”, the Cmax/dose [24] was 427 nM and the GI50 (KARPAS-422; Homo sapiens, KARPAS-422, 336 h) was 4 µM. For the same compound, the GI90 (KARPAS-422) was 8 µM, the IC50 [25] was 9.6 µM and the Activity [26] was 20%. It also gave a logD [27] of 3.88, an AUC/dose [28] of 2939 nM·h and a pKa [29] of 5.2. For the same compound, the Activity [30] was “Non-Toxic”, the Vdss [31] was 2 L/kg and the Cmax/dose [32] was 400 nM.
